From PMC12466917, “Evolutionary selection of trimethoprim-resistant dfrA genes in lytic phages affects phage and host fitness during infection” (Science Advances, 2025) come the findings set out here.

SMILES strings stand for the structures.

The test system of one test is DfrA43. Description: NADPH oxidation followed at […] nm, nonlinear regression. The test is classed as biochemical. Particulars: 100 uM NADPH; dihydrofolate 5-100 uM; 50 mM Tris-HCl, 50 mM KCl, pH 7.5; ~25 C.
The test system of a further test is DfrA52. Described as above. Format: biochemical, Escherichia phage vB_EcoM_BMB16. Particulars: 100 uM NADPH; dihydrofolate 5-100 uM; 50 mM Tris-HCl, 50 mM KCl, pH 7.5; ~25 C.

As for `Nc1nc2c(c(=O)[nH]1)N=C(CNc1ccc(C(=O)N[C@@H](CCC(=O)O)C(=O)O)cc1)CN2` [dihydrofolate], the Km (usually the concentration of substrate that gives half-maximal velocity) with DfrA43 came to 47.6 ± 21.6 µM; with DfrA52, 167 ± 34.8 µM.
